For data set [1] the following is noted: room temperature.
Source text: After stirring for one week, and after stirring for 2 weeks, the crystals of 1-ethyl-7-methyl-3-{4-[(3-methyl-3H-imidazo[4,5-b]pyridin-2-yl)oxy]phenyl}-1,3-dihydro-2H-imidazo[4,5-b]pyridin-2-one formed were collected by filtration, and the crystal form of the crystalline products was confirmed.
Data set [2] is described as follows: Study of crystallization from various solvents (solubility at 55° C. and crystal form obtained). It is filed as physicochemical. The settings on record: for solubility: 55 °C, organic solvent or mixture, thermodynamic from solid; for crystal form: dissolved at 55° C., cooled to 0-5° C., stirred 8 hr. How it is done: This solution was filtered through a filter with 0.22 μm pore size, and cooled to 0-5° C. with stirring. The mixture was stirred for 8 hr under cooling at 0-5° C.

[3] abbreviates: 80° C., 1 week, sealed glass bottle.
[4] abbreviates: 80° C., 2 weeks, sealed glass bottle.

The source of these data is patent US9512118B2, “Crystal of fused heterocyclic compound” (TAKEDA PHARMACEUTICAL COMPANY LIMITED, priority 2011, dated 2016).

SMILES strings stand for the structures. ≈ marks a conversion by molar mass, not a printed value. Where two headings read alike, the source gives them in different places.

Regarding `CCn1c(=O)n(-c2ccc(Oc3nc4cccnc4n3C)cc2)c2nccc(C)c21` [Form A, 1-ethyl-7-methyl-3-{4-[(3-methyl-3H-imidazo[4,5-b]pyridin-2-yl)oxy]phenyl}-1,3-dihydro-2H-imidazo[4,5-b]pyridin-2-one], the “crystal form 1 week later” value in data set [1] (suspended in 1-butanol) is listed as “Form A”; in data set [1] (suspended in acetone), “Form G”; in data set [1] (suspended in ethyl acetate), “Form A + Form G”; in data set [1] (suspended in isopropyl alcohol), “Form A”; in data set [1] (suspended in methanol) it was “Form G”; in data set [1] (suspended in methylethylketone), “Form G”. In addition, the “crystal form 1 week later” value in data set [1] (suspended in tetrahydrofuran) and in data set [1] (suspended in toluene) was “Form G” in each case. The “crystal form 2 weeks later” value in data set [1] (suspended in 1-butanol) is on record as “Form A”; in data set [1] (suspended in acetone) it was “Form G”; in data set [1] (suspended in ethyl acetate), “Form G”; in data set [1] (suspended in isopropyl alcohol) it was “Form A”; in data set [1] (suspended in methanol), “Form G”; in data set [1] (suspended in methylethylketone), “Form G”. Also, the “crystal form 2 weeks later” value in data set [1] (suspended in tetrahydrofuran) and in data set [1] (suspended in toluene) was “Form G” each time. In addition, the solubility in data set [2] (solvent 2-propanol) is below 2700 µg/mL; in data set [2] (solvent acetone), 6500 µg/mL (≈ 16.2 mM); in data set [2] (solvent acetonitrile), 8100 µg/mL (≈ 20.2 mM); in data set [2] (solvent chloroform), above 200000 µg/mL; in data set [2] (solvent ethanol) it was 2600 µg/mL (≈ 6.49 mM); in data set [2] (solvent ethyl acetate) it was 3400 µg/mL (≈ 8.49 mM). Besides, the solubility was 5600 µg/mL (≈ 14 mM) in data set [2] (solvent methanol); 6800 µg/mL (≈ 17 mM) in data set [2] (solvent methylethylketone); 26000 µg/mL (≈ 64.9 mM) in data set [2] (solvent tetrahydrofuran); 5200 µg/mL (≈ 13 mM) in data set [2] (solvent toluene); above 200000 µg/mL in data set [2] (solvent trifluoroethanol). In addition, the crystal form entry is “Form A” in data set [2] (crystallized from 2-propanol); “Form A” in data set [2] (crystallized from acetone); “Form B” in data set [2] (crystallized from acetonitrile); “Form A” in data set [2] (crystallized from chloroform); “Form A” in data set [2] (crystallized from ethanol); “Form A” in data set [2] (crystallized from ethyl acetate). Also, the crystal form entry in data set [2] (crystallized from methanol) is “Form A”; in data set [2] (crystallized from methylethylketone), “Form A”; in data set [2] (crystallized from tetrahydrofuran), “Form A”; in data set [2] (crystallized from toluene) it was “Form G”; in data set [2] (crystallized from trifluoroethanol), “Form D”.

Regarding `CCn1c(=O)n(-c2ccc(Oc3nc4cccnc4n3C)cc2)c2nccc(C)c21` [Form G, 1-ethyl-7-methyl-3-{4-[(3-methyl-3H-imidazo[4,5-b]pyridin-2-yl)oxy]phenyl}-1,3-dihydro-2H-imidazo[4,5-b]pyridin-2-one], under setting [3], the appearance result was “no change”, the “area percentage (%) of HPLC peak area of main form” value (“area percentage (%)” below) is listed as 99.7% and the crystal form result is on record as “Form G”. For the same compound, under setting [4], the appearance entry is recorded as “no change”, the “area percentage (%)” value worked out at 99.6% and the crystal form entry was “Form G”. Further, for the setting “prestorage”, the appearance result was “white crystalline”, the “area percentage (%)” value worked out at 99.7% and the crystal form result is recorded as “Form G”.

For orientation: solubility means the dissolved amount per volume that the medium holds.
